The values below are quoted from earlier work in article PMC5810560 (Chemico-biological interactions, 2017).

For the series the following is noted: rats, brain homogenates, 50 μmol IM exposure; ref Petroianu et al., 2007; cited from earlier work.

`C[n+]1ccccc1/C=N/O` [2-PAM, pralidoxime chloride]: the brain/plasma ratio is 0.056.
